Experimental data reported in the NIST ThermoML archive (doi:10.1016/j.jct.2011.01.014).

Assay: xn = mol fraction of the nth substance listed
Settings: 101 kPa, Liquid; for mass density: Vibrating tube method; for speed of sound: sound velocity cell

CC(=O)[O-].[NH3+]CCO [2-hydroxyethylammonium acetate] + CO
Settings	mass density [kg/m3]	speed of sound [m/s]
288.15 K, x1 = 0.0492	850.323	1214.8
288.15 K, x1 = 0.0951	891.619	1276.8
288.15 K, x1 = 0.1987	958.564	1390.3
288.15 K, x1 = 0.29	1002.52	1476.1
288.15 K, x1 = 0.3786	1034.79	1545.4
288.15 K, x1 = 0.4825	1066.13	1618.4
288.15 K, x1 = 0.6007	1093.45	1688
288.15 K, x1 = 0.6711	1107.68	1725.1
288.15 K, x1 = 0.7797	1126.68	1740.8
288.15 K, x1 = 0.8297	1134.06	1797.8
288.15 K, x1 = 0.9328	1147.97	1795.3
288.15 K, x1 = 1	1154.7	1817.2
290.65 K, x1 = 0.0492	848.152	1207.2
290.65 K, x1 = 0.0951	889.567	1269.4
290.65 K, x1 = 0.1987	956.698	1383.4
290.65 K, x1 = 0.29	1000.78	1469.5
290.65 K, x1 = 0.3786	1033.16	1538.9
290.65 K, x1 = 0.4825	1064.58	1612.3
290.65 K, x1 = 0.6007	1091.92	1681.6
290.65 K, x1 = 0.6711	1106.19	1718.6
290.65 K, x1 = 0.7797	1125.18	1734.6
290.65 K, x1 = 0.8297	1132.65	1790.7
290.65 K, x1 = 0.9328	1146.53	1787.9
290.65 K, x1 = 1	1153.28	1810
293.15 K, x1 = 0.0492	845.97	1199.8
293.15 K, x1 = 0.0951	887.505	1262.1
293.15 K, x1 = 0.1987	954.823	1376.3
293.15 K, x1 = 0.29	999.035	1462.8
293.15 K, x1 = 0.3786	1031.5	1532.4
293.15 K, x1 = 0.4825	1063.02	1606.2
293.15 K, x1 = 0.6007	1090.45	1675.2
293.15 K, x1 = 0.6711	1104.7	1712.1
293.15 K, x1 = 0.7797	1123.69	1728.6
293.15 K, x1 = 0.8297	1131.24	1784
293.15 K, x1 = 0.9328	1145.1	1781.1
293.15 K, x1 = 1	1151.87	1803.2
295.65 K, x1 = 0.0492	843.786	1192.1
295.65 K, x1 = 0.0951	885.441	1254.6
295.65 K, x1 = 0.1987	952.95	1369.2
295.65 K, x1 = 0.29	997.283	1456
295.65 K, x1 = 0.3786	1029.84	1525.9
295.65 K, x1 = 0.4825	1061.45	1600
295.65 K, x1 = 0.6007	1088.98	1669.1
295.65 K, x1 = 0.6711	1103.21	1705.8
295.65 K, x1 = 0.7797	1122.2	1722.7
295.65 K, x1 = 0.8297	1129.83	1777.5
295.65 K, x1 = 0.9328	1143.67	1774.5
295.65 K, x1 = 1	1150.45	1796.8
298.15 K, x1 = 0.0492	841.599	1184.3
298.15 K, x1 = 0.0951	883.376	1247
298.15 K, x1 = 0.1987	951.074	1362.2
298.15 K, x1 = 0.29	995.529	1449.3
298.15 K, x1 = 0.3786	1028.18	1519.5
298.15 K, x1 = 0.4825	1059.89	1593.9
298.15 K, x1 = 0.6007	1087.51	1663
298.15 K, x1 = 0.6711	1101.72	1699.7
298.15 K, x1 = 0.7797	1120.71	1717
298.15 K, x1 = 0.8297	1128.41	1771.3
298.15 K, x1 = 0.9328	1142.24	1768.2
298.15 K, x1 = 1	1149.04	1790.7
300.65 K, x1 = 0.0492	839.407	1176.5
300.65 K, x1 = 0.0951	881.305	1239.5
300.65 K, x1 = 0.1987	949.197	1355.1
300.65 K, x1 = 0.29	993.775	1442.7
300.65 K, x1 = 0.3786	1026.52	1513.1
300.65 K, x1 = 0.4825	1058.32	1587.8
300.65 K, x1 = 0.6007	1086.03	1657
300.65 K, x1 = 0.6711	1100.3	1693.7
300.65 K, x1 = 0.7797	1119.26	1711.3
300.65 K, x1 = 0.8297	1127	1765.3
300.65 K, x1 = 0.9328	1140.81	1762.1
300.65 K, x1 = 1	1147.63	1784.8
303.15 K, x1 = 0.0492	837.209	1168.8
303.15 K, x1 = 0.0951	879.233	1232
303.15 K, x1 = 0.1987	947.318	1348.1
303.15 K, x1 = 0.29	992.018	1436
303.15 K, x1 = 0.3786	1024.86	1506.7
303.15 K, x1 = 0.4825	1056.74	1581.7
303.15 K, x1 = 0.6007	1084.54	1651
303.15 K, x1 = 0.6711	1098.87	1687.7
303.15 K, x1 = 0.7797	1117.84	1705.7
303.15 K, x1 = 0.8297	1125.59	1759.4
303.15 K, x1 = 0.9328	1139.38	1756.3
303.15 K, x1 = 1	1146.22	1779
305.65 K, x1 = 0.0492	835.006	–
305.65 K, x1 = 0.0951	877.153	–
305.65 K, x1 = 0.1987	945.436	–
305.65 K, x1 = 0.29	990.259	–
305.65 K, x1 = 0.3786	1023.19	–
305.65 K, x1 = 0.4825	1055.17	–
305.65 K, x1 = 0.6007	1083.06	–
305.65 K, x1 = 0.6711	1097.42	–
305.65 K, x1 = 0.7797	1116.4	–
305.65 K, x1 = 0.8297	1124.17	–
305.65 K, x1 = 0.9328	1137.95	–
305.65 K, x1 = 1	1144.8	–
